Earlier results in patent publication US9308169B2, “Microspheres for active embolization” (Biosphere Medical, Inc., priority 2000, dated 2016).

Conditions: effect of the spacer / dangling cationic head of the transfection agent; general statement, no test described

Structure (SMILES)	transfection efficiency
CCCCCCCC/C=C\CCCCCCCC(=O)OC[C@H](COC(=O)CCC(=O)OCC[N+](C)(C)C)OC(=O)CCCCCCC/C=C\CCCCCCCC [DOSC]	best transfection efficiency
CCCCCCCC/C=C\CCCCCCCC(=O)OC[C@H](COC(=O)CCC[N+](C)(C)C)OC(=O)CCCCCCC/C=C\CCCCCCCC [DOTB]	best transfection efficiency
